Laboratory results reported in ChEMBL document CHEMBL1132927, “New proline mimetics: synthesis of thrombin inhibitors incorporating cyclopentane- and cyclopentenedicarboxylic acid templates in the P2 position. Binding conformation investigated by X-ray crystallography” (J Med Chem, 2000).

Target: Prothrombin (Homo sapiens, UniProt P00734)
Assay: In vitro for the inhibition of thrombin

| IC50 [µM] | Structure (SMILES) |
| --- | --- |
| 0.98 | CCN(C(=O)C1=CCC[C@H]1C(=O)NCc1ccc(C(=N)N)cc1)c1ccccc1 |
| 9.33 | N=C(N)c1ccc(CNC(=O)[C@@H]2CCC=C2C(=O)NCC2CCCCC2)cc1 |
| 20.4 | COC(=O)[C@H](NC(=O)[C@@H]1CCC[C@H]1C(=O)NCc1ccc(C(=N)N)cc1)c1ccccc1 |
| 6.03 | N=C(N)c1ccc(CNC(=O)[C@@H]2CCC=C2C(=O)N2CCCCC2)cc1 |
| 1.32 | N=C(N)c1ccc(CNC(=O)[C@@H]2CCC[C@H]2C(=O)NC2CCCCC2)cc1 |
| > 132 | N=C(N)c1ccc(CNC(=O)[C@@H]2CCC[C@H]2C(=O)N[C@@H](C(=O)O)c2ccccc2)cc1 |
| 0.87 | CCON(C(=O)C1=CCC[C@H]1C(=O)NCc1ccc(C(=N)N)cc1)C1CCCCC1 |
| > 132 | N=C(N)c1ccc(CNC(=O)[C@H]2CCC[C@@H]2C(=O)NCc2ccccc2)cc1 |
| 44.7 | N=C(N)c1ccc(CNC(=O)[C@@H]2CCC[C@H]2C(=O)NCc2ccccc2)cc1 |
| 1.51 | N=C(N)c1ccc(CNC(=O)[C@@H]2CCC=C2C(=O)NC2CCCCC2)cc1 |
